Test results reported in article PMC10518257 (Nature Cancer, 2023).
Several values for one entry are separate records, joined by “and”; a condition that tells them apart may be missing. Identical values can stand only once. Like-named read-outs stand apart in the source and are kept apart here.

Columns and labels:
[1] = test system: Ba/F3 cells expressing KIF5B–RET^G810R; experiment: Growth inhibition assay in Ba/F3 cells (CellTiter-Glo, 72 h); type: cell-based; settings: replicate Sets 1-3
[2] = test system: LUAD-0077AS1 PDX; experiment: PDX efficacy study; type: in vivo, NSG mice; design: Tumor volume: unit not given here; settings: 10 mg/kg BID
[3] = biological target: T1, panel of 255 (vepafestinib) or 256 (all other inhibitors) recombinant kinases (Homo sapiens, UniProt P16234); experiment: Kinase selectivity profiling at a single concentration (Carna Biosciences); type: biochemical; settings: 22 nM
T1 construct: purchased Carna Biosciences

[4] = biological target: T2, panel of 255 (vepafestinib) or 256 (all other inhibitors) recombinant kinases (Homo sapiens, UniProt P35916); experiment: as above; type: biochemical; settings: 22 nM
T2 construct: purchased Carna Biosciences

[5] = biological target: panel of 255 (vepafestinib) or 256 (all other inhibitors) recombinant kinases; experiment: as above; type: biochemical; settings: 22 nM, 256 kinases
[6] = test system: LC-2/ad cells; experiment: Growth inhibition (alamarBlue, 96 h); type: cell-based, human; settings: for raw viability signal (Source Data Fig. 3b-c): LC-2/Ad, replicate sets
[7] = test system: Ba/F3 cells expressing KIF5B–RET^G810C; experiment: Growth inhibition assay in Ba/F3 cells (CellTiter-Glo, 72 h); type: cell-based; settings: replicate Sets 1-3
[8] = test system: MMNK1 cholangiocytes; experiment: Growth inhibition (alamarBlue, 96 h); type: cell-based, human; settings: for raw viability signal (Source Data Fig. 3b-c): MMNK, replicates
[9] = test system: phosphorylation of RET^G810R, RET^G810S and RET^G810C in Ba/F3 cells; experiment: Western blotting of RET phosphorylation in Ba/F3 KIF5B–RET cells; type: cell-based; settings: 1 h, western blot
[10] = test system: Ba/F3 cells; experiment: Growth inhibition assay in Ba/F3 cells (CellTiter-Glo, 72 h); type: cell-based
[11] = test system: LUAD-0087AS2 PDX; experiment: PDX efficacy study; settings: for Tumor volume: LUAD-0087AS2, selpercatinib group 30 mg/kg BID, individual animals
[12] = test system: LUAD-0002AS1 cells; experiment: Growth inhibition (alamarBlue, 96 h); type: cell-based, human; settings: for raw viability signal (Source Data Fig. 3b-c): LUAD-0002AS1, replicate sets
[13] = test system: LUAD-0086AS3 cells; experiment: Growth inhibition (alamarBlue, 96 h); type: cell-based, human; settings: for raw viability signal (Source Data Fig. 3b-c): LUAD-0086AS3 (n=1, 3 replicates)
[14] = test system: Ba/F3-CCDC6::RET^S904F; experiment: Growth inhibition assay in Ba/F3 cells (CellTiter-Glo, 72 h); type: cell-based
[15] = test system: TT cells; experiment: Growth inhibition (alamarBlue, 96 h); type: cell-based, human; settings: for raw viability signal (Source Data Fig. 3b-c): replicate sets
[16] = test system: Ba/F3 KIF5B–RET^WT allograft tumors; experiment: Subcutaneous allograft efficacy study; type: in vivo, BALB/c nude mice; settings: Ba/F3-KIF5B::RET, Ext. Data Fig. 9a
[17] = test system: Ba/F3 cells expressing KIF5B–RET^V804L; experiment: Growth inhibition assay in Ba/F3 cells (CellTiter-Glo, 72 h); type: cell-based; settings: replicate sets
[18] = Homo sapiens, 96 h, read-out: IC50 for Inhibition of Growth (95% CI)

T1 sequence (P16234 24-1089): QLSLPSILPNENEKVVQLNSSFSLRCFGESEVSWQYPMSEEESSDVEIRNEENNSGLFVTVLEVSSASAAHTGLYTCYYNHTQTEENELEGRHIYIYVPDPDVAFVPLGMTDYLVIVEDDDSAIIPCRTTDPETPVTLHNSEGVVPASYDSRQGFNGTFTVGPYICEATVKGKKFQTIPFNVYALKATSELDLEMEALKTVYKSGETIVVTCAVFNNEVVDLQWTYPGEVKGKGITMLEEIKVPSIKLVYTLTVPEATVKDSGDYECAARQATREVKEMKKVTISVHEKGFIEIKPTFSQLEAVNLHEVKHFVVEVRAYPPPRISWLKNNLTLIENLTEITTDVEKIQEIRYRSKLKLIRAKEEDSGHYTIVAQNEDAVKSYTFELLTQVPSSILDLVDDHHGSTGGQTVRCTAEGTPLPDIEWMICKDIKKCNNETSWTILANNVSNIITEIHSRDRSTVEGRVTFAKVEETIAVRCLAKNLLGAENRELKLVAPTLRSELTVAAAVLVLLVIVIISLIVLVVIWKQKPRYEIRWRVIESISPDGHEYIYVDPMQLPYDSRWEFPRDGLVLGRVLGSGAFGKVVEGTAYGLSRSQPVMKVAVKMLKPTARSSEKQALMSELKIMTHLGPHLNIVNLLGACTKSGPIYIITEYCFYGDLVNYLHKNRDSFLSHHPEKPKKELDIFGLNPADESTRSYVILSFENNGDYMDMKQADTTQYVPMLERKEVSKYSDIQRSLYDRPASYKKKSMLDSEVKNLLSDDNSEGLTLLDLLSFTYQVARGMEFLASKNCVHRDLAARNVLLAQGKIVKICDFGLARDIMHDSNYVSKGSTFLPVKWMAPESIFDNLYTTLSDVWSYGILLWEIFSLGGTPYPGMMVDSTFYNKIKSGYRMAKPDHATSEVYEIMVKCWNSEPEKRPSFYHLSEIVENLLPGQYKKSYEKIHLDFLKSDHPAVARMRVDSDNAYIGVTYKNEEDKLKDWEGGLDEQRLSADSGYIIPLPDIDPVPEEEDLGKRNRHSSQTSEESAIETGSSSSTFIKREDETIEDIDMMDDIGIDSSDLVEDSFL
T2 sequence (P35916 25-1363): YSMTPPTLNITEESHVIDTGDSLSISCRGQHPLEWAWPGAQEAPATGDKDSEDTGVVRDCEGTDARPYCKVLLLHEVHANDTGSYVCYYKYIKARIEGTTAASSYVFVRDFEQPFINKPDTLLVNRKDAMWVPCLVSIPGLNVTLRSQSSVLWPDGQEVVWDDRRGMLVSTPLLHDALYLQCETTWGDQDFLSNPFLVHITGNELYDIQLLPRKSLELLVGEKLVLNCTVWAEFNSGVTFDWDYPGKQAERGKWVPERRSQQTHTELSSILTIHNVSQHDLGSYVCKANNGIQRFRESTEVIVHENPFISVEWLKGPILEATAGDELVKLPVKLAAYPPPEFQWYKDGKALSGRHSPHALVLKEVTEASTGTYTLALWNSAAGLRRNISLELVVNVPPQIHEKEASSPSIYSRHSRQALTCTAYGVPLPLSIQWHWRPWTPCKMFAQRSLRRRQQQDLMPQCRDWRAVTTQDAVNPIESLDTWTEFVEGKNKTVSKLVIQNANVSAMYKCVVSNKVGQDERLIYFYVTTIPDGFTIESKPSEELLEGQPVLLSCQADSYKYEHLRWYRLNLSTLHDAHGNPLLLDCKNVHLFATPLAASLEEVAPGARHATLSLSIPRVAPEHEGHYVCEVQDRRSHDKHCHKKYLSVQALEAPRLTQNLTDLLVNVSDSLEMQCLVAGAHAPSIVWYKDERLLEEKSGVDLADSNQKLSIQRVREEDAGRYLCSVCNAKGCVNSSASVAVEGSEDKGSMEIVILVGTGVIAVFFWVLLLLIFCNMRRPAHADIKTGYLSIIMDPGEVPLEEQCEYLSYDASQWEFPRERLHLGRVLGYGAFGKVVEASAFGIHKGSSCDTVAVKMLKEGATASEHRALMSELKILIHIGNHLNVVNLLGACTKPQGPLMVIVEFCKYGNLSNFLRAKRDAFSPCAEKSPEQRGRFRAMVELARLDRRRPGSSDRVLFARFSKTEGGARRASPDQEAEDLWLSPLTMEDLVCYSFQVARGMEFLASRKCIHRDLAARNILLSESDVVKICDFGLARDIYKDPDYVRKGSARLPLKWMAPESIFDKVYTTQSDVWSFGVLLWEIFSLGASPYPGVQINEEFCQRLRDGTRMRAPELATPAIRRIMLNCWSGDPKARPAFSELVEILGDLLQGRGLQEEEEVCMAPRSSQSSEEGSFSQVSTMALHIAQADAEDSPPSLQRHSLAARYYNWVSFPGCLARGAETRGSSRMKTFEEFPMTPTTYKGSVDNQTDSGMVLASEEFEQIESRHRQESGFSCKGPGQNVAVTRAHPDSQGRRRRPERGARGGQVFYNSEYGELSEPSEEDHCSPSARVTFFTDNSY

## COc1ccc(CN2C3CC2CN(c2ccc(-c4cc(OCC(C)(C)O)cn5ncc(C#N)c45)cn2)C3)cn1 [Selpercatinib]
[1]; Ba/3-KIF5B-RET-G810R
  GI50: 1070 nM and 1190 nM
[1]; Mus musculus, BaF3, Ba/3-KIF5B-RET-G810R
  GI50: 800 nM
[2]; Fig. 6b LUAD-0077AS1 tumor growth
  Area Under Curve Mean: -23
[2]; LUAD-0077AS1, individual animals
  Change in tumor volume (block without heading, Fig. 6b): 38.5614 and 19.1252 and 18.7579 and 13.1905 and -24.8651
[2]; LUAD-0077AS1, treatment day 0, individual animals
  Tumor volume: 87.11 (3×) and 85.5 and 88.7
[2]; LUAD-0077AS1, treatment day 4, individual animals
  Tumor volume: 68.07 (2×) and 74.9 and 73.54 and 70.82
[2]; LUAD-0077AS1, treatment day 7, individual animals
  Tumor volume: 60.32 and 69.38 and 66.76 and 62.86
[2]; LUAD-0077AS1, treatment day 11, individual animals
  Tumor volume: 55.4 and 58.99 and 56.5 and 54.36 and 55.52
[2]; LUAD-0077AS1, treatment day 14, individual animals
  Tumor volume: 43.41 and 58.99 (2×) and 54.36 and 55.52
[2]; LUAD-0077AS1, treatment day 19, individual animals
  Tumor volume: 65.45 and 118.47 and 103.45 and 103.77 and 100.4
[2]; LUAD-0077AS1, treatment day 22, individual animals
  Tumor volume: 73.3 and 171.06 and 147.55 and 142.9 and 164.22
[2]; LUAD-0077AS1, treatment day 25, individual animals
  Tumor volume: 73.3 and 231.59 and 205.8 and 209.11 and 214.85
[3]
  % Inhibiton PDGFRα: 28.7%
[4]
  % Inhibiton FLT4: 84.9%
[5]
  kinases inhibited by >50%: three
[6]; Homo sapiens, LC-2-ad, 96 h, read-out: IC50 for Inhibition of Growth (95% CI)
  IC50: 12 nM
[6]; 0.01 nM
  raw viability signal (Source Data Fig. 3b-c): 13499 and 23395.2
[6]; 0.1 nM
  raw viability signal (Source Data Fig. 3b-c): 14768.6 and 22354.3
[6]; 1 nM
  raw viability signal (Source Data Fig. 3b-c): 11358.1 and 22611.3
[6]; 10 nM
  raw viability signal (Source Data Fig. 3b-c): 5849.16 and 13692
[6]; 100 nM
  raw viability signal (Source Data Fig. 3b-c): 4303.48 and 6998.63
[6]; 1000 nM
  raw viability signal (Source Data Fig. 3b-c): 4639.86 and 5076.98
[6]; 10000 nM
  raw viability signal (Source Data Fig. 3b-c): 1761.41 and 1760.41
[7]; Ba/3-KIF5B-RET-G810C
  GI50: 201 nM and 181 nM
[7]; Mus musculus, BaF3, Ba/3-KIF5B-RET-G810C
  GI50: 233 nM
[8]; [18]
  IC50: 7930 nM
[8]; 0.01 nM
  raw viability signal (Source Data Fig. 3b-c): 14041 and 14658.8
[8]; 0.1 nM
  raw viability signal (Source Data Fig. 3b-c): 13930.7 and 15331
[8]; 1 nM
  raw viability signal (Source Data Fig. 3b-c): 13461 and 14668.6
[8]; 10 nM
  raw viability signal (Source Data Fig. 3b-c): 13703.4 and 14128
[8]; 100 nM
  raw viability signal (Source Data Fig. 3b-c): 13905.3 and 14051.8
[8]; 1000 nM
  raw viability signal (Source Data Fig. 3b-c): 12731.7 and 12599.2
[8]; 10000 nM
  raw viability signal (Source Data Fig. 3b-c): 6976.41 and 6993.09
[9]
  block of phosphorylation of RET^G810R, RET^G810S or RET^G810C: did not block
[10]; Ba/F3 (parental), replicate Sets 1-3
  GI50: 3870 nM and 3570 nM
[10]; Mus musculus, BaF3, 72 h, read-out: GI50 value (Mean ± SD), Ba/F3, CellTiter-Glo, 72 h
  GI50: 3980 nM
[10]; Mus musculus, BaF3, Ba/F3 (parental), replicate Sets 1-3
  GI50: 4490 nM
[11]; Fig. 6a LUAD-0087AS2 tumor growth, selpercatinib 30 mg/kg BID
  Area Under Curve Mean: -1216
[11]; treatment day 0
  Tumor volume: 118.47 (2×) and 116.65 and 114.49 (2×)
[11]; treatment day 3
  Tumor volume: 107.17 (3×) and 103.77 and 112.73
[11]; treatment day 7
  Tumor volume: 99.78 and 112.28 and 107.17 (2×) and 110.58
[11]; treatment day 10
  Tumor volume: 95.03 (4×) and 96.62
[11]; treatment day 14
  Tumor volume: 91.61 and 88.25 and 95.03 and 86.78 and 91.87
[11]; treatment day 17
  Tumor volume: 103.77 and 88.25 and 107.17 and 96.62 and 91.87
[11]; treatment day 21
  Tumor volume: 103.77 and 83.83 and 96.62 (2×) and 91.87
[11]; treatment day 24
  Tumor volume: 72.18 (2×) and 83.97 and 80.89 and 74.9
[11]; treatment day 29
  Tumor volume: 80.89 (2×) and 72.18 and 85.5 and 74.9
[11]; treatment day 32
  Tumor volume: 80.89 (3×) and 75.04 and 70.69
[11]; treatment day 35
  Tumor volume: 82.36 and 75.04 and 88.7 and 80.89 and 70.69
[11]; treatment day 38
  Tumor volume: 79.29 and 75.04 and 88.7 and 80.89 and 70.69
[11]; treatment day 42
  Tumor volume: 79.29 and 75.04 and 98.67 and 80.89 and 77.87
[11]; treatment day 45
  Tumor volume: 79.29 and 72.18 and 98.67 and 68.07 and 73.54
[12]; [18]
  IC50: 3 nM
[12]; 0.01 nM
  raw viability signal (Source Data Fig. 3b-c): 16631.5 and 13192.5 and 12693
[12]; 0.1 nM
  raw viability signal (Source Data Fig. 3b-c): 14296.3 and 14495.9 and 14138.2
[12]; 1 nM
  raw viability signal (Source Data Fig. 3b-c): 14160.4 and 9635.41 and 11277.7
[12]; 10 nM
  raw viability signal (Source Data Fig. 3b-c): 3799.84 and 3179.94 and 4108.28
[12]; 100 nM
  raw viability signal (Source Data Fig. 3b-c): 2188.78 and 2790.7 and 3166.11
[12]; 1000 nM
  raw viability signal (Source Data Fig. 3b-c): 1304.58 and 2278.18 and 2772.5
[12]; 10000 nM
  raw viability signal (Source Data Fig. 3b-c): 935.372 and 1860.61 and 2356.9
[13]; [18]
  IC50: 84 nM
[13]; 0.01 nM
  raw viability signal (Source Data Fig. 3b-c): 32605.6 and 32345.5 and 24840.6
[13]; 0.1 nM
  raw viability signal (Source Data Fig. 3b-c): 24088.4 and 24382.4 and 28533.2
[13]; 1 nM
  raw viability signal (Source Data Fig. 3b-c): 21980.7 and 23036.6 and 27631.4
[13]; 10 nM
  raw viability signal (Source Data Fig. 3b-c): 22728.2 and 21261.8 and 26828.6
[13]; 100 nM
  raw viability signal (Source Data Fig. 3b-c): 13108.2 and 14842.7 and 15753
[13]; 1000 nM
  raw viability signal (Source Data Fig. 3b-c): 5050.52 and 4540.04 and 5107.48
[13]; 10000 nM
  raw viability signal (Source Data Fig. 3b-c): 1139.12 and 1223.75 and 1244.48
[14]; Mus musculus, BaF3, 72 h, read-out: GI50 value (Mean ± SD), Ba/F3-CCDC6::RET^S904F, CellTiter-Glo, 72 h
  GI50: 4.76 ± 3.02 nM
[14]; read-out: GI50 values, Ba/F3-CCDC6::RET S904F, individual sets (replicate experiments)
  GI50: 4.25 nM and 8 nM and 2.03 nM
[15]; 0.01 nM
  raw viability signal (Source Data Fig. 3b-c): 21887.2 and 26414 and 26210.1 and 12272.3 and 26926.8
[15]; 0.1 nM
  raw viability signal (Source Data Fig. 3b-c): 22325.8 and 26539.8 and 30465.8 and 11158.3 and 24677.4
[15]; 1 nM
  raw viability signal (Source Data Fig. 3b-c): 20930 and 26176.3 and 29470 and 9614.13 and 22745.1
[15]; 10 nM
  raw viability signal (Source Data Fig. 3b-c): 15380.3 and 24600.1 and 21198.9 and 8183.69 and 18775.6
[15]; 100 nM
  raw viability signal (Source Data Fig. 3b-c): 9716.19 and 12690.1 and 13114.5 and 5163.1 and 15418.2
[15]; 1000 nM
  raw viability signal (Source Data Fig. 3b-c): 9549.4 and 11696.3 and 12426 and 4648.23 and 14095
[15]; 10000 nM
  raw viability signal (Source Data Fig. 3b-c): 9076.49 and 11812.8 and 14226.5 and 5846.11 and 12620.2
[15]; [18]
  IC50: 23 nM
[16]; 3 mg/kg BID, Day 1
  Tumor Volume Mean: 153.36 mm3
[16]; 3 mg/kg BID, Day 4
  Tumor Volume Mean: 200.42 mm3
[16]; 3 mg/kg BID, Day 8
  Tumor Volume Mean: 331.73 mm3
[16]; 3 mg/kg BID, Day 11
  Tumor Volume Mean: 595.39 mm3
[16]; 3 mg/kg BID, Day 15
  Tumor Volume Mean: 703.72 mm3
[16]; 10 mg/kg BID, Day 1
  Tumor Volume Mean: 152.35 mm3
[16]; 10 mg/kg BID, Day 4
  Tumor Volume Mean: 168.16 mm3
[16]; 10 mg/kg BID, Day 8
  Tumor Volume Mean: 206.58 mm3
[16]; 10 mg/kg BID, Day 11
  Tumor Volume Mean: 318.64 mm3
[16]; 10 mg/kg BID, Day 15
  Tumor Volume Mean: 406.01 mm3
[16]; 30 mg/kg BID, Day 1
  Tumor Volume Mean: 155.70 mm3
[16]; 30 mg/kg BID, Day 4
  Tumor Volume Mean: 126.28 mm3
[16]; 30 mg/kg BID, Day 8
  Tumor Volume Mean: 138.87 mm3
[16]; 30 mg/kg BID, Day 11
  Tumor Volume Mean: 107.82 mm3
[16]; 30 mg/kg BID, Day 15
  Tumor Volume Mean: 112.41 mm3
[16]; 100 mg/kg BID, Day 1
  Tumor Volume Mean: 157.17 mm3
[16]; 100 mg/kg BID, Day 4
  Tumor Volume Mean: 107.92 mm3
[16]; 100 mg/kg BID, Day 8
  Tumor Volume Mean: 75.50 mm3
[17]; Ba/3-KIF5B-RET-V804L
  GI50: 8.67 nM and 7.06 nM
[17]; Mus musculus, BaF3, Ba/3-KIF5B-RET-V804L
  GI50: 5.67 nM
